Reference: ChEMBL document CHEMBL4130414, “Asymmetric synthesis of novel triazole derivatives and their in vitro antiviral activity and mechanism of action” (Eur J Med Chem, 2017)
≈ marks a conversion by molar mass, not a printed value. Calls of active or inactive are those of the source. The calls are words filed in the database; no cut-off is given here.

Columns and labels:
[1] = Cytotoxicity against human RD cells assessed as reduction in cell viability after 3 days by MTT assay; type: cell-based
[2] = Cytotoxicity against human Hep2 cells assessed as reduction in cell viability after 3 days by MTT assay; type: cell-based; settings: HEp-2 cells
Enterovirus A71 [3] = test: Antiviral activity against EV71 Xiangyang-Hubei-09 infected in human RD cells assessed as inhibition of virus-induced cytopathic effect by MTT dye based assay; type: functional, organism-based
Coxsackievirus B3 [4] = test: Antiviral activity against Coxsackievirus B3 (strain Nancy) infected in human HEP2 cells assessed as inhibition of virus-induced cytopathic effect by MTT dye based assay; type: functional, organism-based
[5] = Selectivity index, ratio of CC50 for human HEP2 cells to EC50 for Coxsackievirus B3 (strain Nancy) infected in human HEP cells; type: toxicity, cell-based; settings: HEp-2 cells, read-out: Ratio CC50/EC50
[6] = Selectivity index, ratio of CC50 for human RD cells to EC50 for EV71 Xiangyang-Hubei-09 infected in human RD cells; type: toxicity, cell-based; settings: read-out: Ratio CC50/EC50
Enterovirus A71 [7] = test: Antiviral activity against EV71 Xiangyang-Hubei-09 infected in human RD cells assessed as inhibition of virus-induced cytopathic effect at 16 ug/ml treated 1 hr post viral infection measured after 48 hrs by MTT dye based assay relative to control; type: functional
Coxsackievirus B3 [8] = test: Antiviral activity against Coxsackievirus B3 (strain Nancy) infected in human HEP2 cells assessed as inhibition of virus-induced cytopathic effect at 16 ug/ml after 48 hrs by MTT dye based assay; type: functional, organism-based
Enterovirus A71 [9] = test: Antiviral activity against EV71 Xiangyang-Hubei-09 infected in human RD cells assessed as alteration in viral cell morphology at 16 ug/ml after 48 hrs; type: functional, organism-based
[10] = Enterovirus B, Nancy, HEp-2, read-out: EC50
[11] = Enterovirus A, Xiangyang-Hubei-09, RD, read-out: EC50

| Compound | CC50 at 72 h [1] | CC50 at 72 h [2] | EC50 (Coxsackievirus B3 [4]; [10]) | selectivity ratio [5] | further results |
| --- | --- | --- | --- | --- | --- |
| CCC[C@H](CCn1cncn1)c1ccccc1 | 63.1 µg/mL (≈ 275 µM) | 58.4 µg/mL (≈ 255 µM) |  |  |  |
| CCCC[C@@H](CCn1cncn1)c1ccc(Cl)cc1 | 18.7 µg/mL (≈ 67.3 µM) | 17 µg/mL (≈ 61.2 µM) |  |  |  |
| c1ccc(C(CCn2cncn2)C2CCCCC2)cc1 (single isomer, unassigned; 39) | 11.8 µg/mL (≈ 43.8 µM) | 24.8 µg/mL (≈ 92.1 µM) | 5.1 µg/mL (≈ 18.9 µM) | 4.9 | EC50 (Enterovirus A71 [3]; rd): Not Active |
| CCC[C@H](CCn1cncn1)c1ccc(C)cc1 | 47.2 µg/mL (≈ 194 µM) | 45.7 µg/mL (≈ 188 µM) |  |  |  |
| Cc1ccc([C@@H](CCn2cncn2)Cc2ccccc2)cc1 | 109 µg/mL (≈ 373 µM) | 83.3 µg/mL (≈ 286 µM) |  |  |  |
| c1ccc(C(CCn2cncn2)C2CCCCC2)cc1 (single isomer, unassigned; 40) | 9.2 µg/mL (≈ 34.2 µM) | 21.8 µg/mL (≈ 80.9 µM) | 4.7 µg/mL (≈ 17.4 µM) | 4.6 | EC50 (Enterovirus A71 [3]; rd): Not Active |
| Cc1ccc(C[C@H](CCn2cncn2)c2ccccc2)cc1 | 37.8 µg/mL (≈ 130 µM) | 38.8 µg/mL (≈ 133 µM) | 7.4 µg/mL (≈ 25.4 µM) | 5.2 | EC50 (Enterovirus A71 [3]; rd): Not Active |
| CC[C@@H](CCn1cncn1)c1ccc(Cl)cc1 | 55.3 µg/mL (≈ 221 µM) | 55.1 µg/mL (≈ 221 µM) | 10.5 µg/mL (≈ 42 µM) | 5.2 | EC50 (Enterovirus A71 [3]; [11]): 5.4 µg/mL (≈ 21.6 µM); selectivity ratio [6]: 10.2 |
| c1ccc(C[C@H](CCn2cncn2)c2ccccc2)cc1 | 55.4 µg/mL (≈ 200 µM) | 60.9 µg/mL (≈ 220 µM) | 14.9 µg/mL (≈ 53.7 µM) | 4.1 | EC50 (Enterovirus A71 [3]; [11]): 12.7 µg/mL (≈ 45.8 µM); selectivity ratio [6]: 4.4 |
| CC[C@H](CCn1cncn1)c1ccc(F)cc1 | 110 µg/mL (≈ 473 µM) | 103 µg/mL (≈ 442 µM) |  |  | EC50 (Enterovirus A71 [3]; rd): Not Active; EC50 (Coxsackievirus B3 [4]): Not Active |
| Clc1ccc([C@H](CCn2cncn2)Cc2ccccc2)cc1 | 21.7 µg/mL (≈ 69.6 µM) | 25.7 µg/mL (≈ 82.4 µM) |  |  |  |
| CCC[C@H](CCn1cncn1)c1ccc(F)cc1 | 38.4 µg/mL (≈ 155 µM) | 39.3 µg/mL (≈ 159 µM) |  |  |  |
| CCCC[C@@H](CCn1cncn1)c1ccc(C)cc1 | 56.5 µg/mL (≈ 220 µM) | 60.7 µg/mL (≈ 236 µM) |  |  | EC50 (Enterovirus A71 [3]; rd): Not Active; EC50 (Coxsackievirus B3 [4]): Not Active |
| CCCC[C@H](CCn1cncn1)c1ccccc1 | 48.3 µg/mL (≈ 198 µM) | 50.2 µg/mL (≈ 206 µM) | 10.4 µg/mL (≈ 42.7 µM) | 4.8 | EC50 (Enterovirus A71 [3]; [11]): 12.1 µg/mL (≈ 49.7 µM); selectivity ratio [6]: 4 |
| CCCC[C@H](CCn1cncn1)c1ccc(F)cc1 | 35.2 µg/mL (≈ 135 µM) | 38.5 µg/mL (≈ 147 µM) |  |  |  |
| CCCC[C@H](CCn1cncn1)c1ccc(Cl)cc1 | 20.3 µg/mL (≈ 73.1 µM) | 20.2 µg/mL (≈ 72.7 µM) |  |  |  |
| CCCC[C@@H](CCn1cncn1)c1ccc(F)cc1 | 34.1 µg/mL (≈ 130 µM) | 36 µg/mL (≈ 138 µM) |  |  |  |
| COc1ccc([C@H](CCn2cncn2)Cc2ccccc2)cc1 | 66 µg/mL (≈ 215 µM) | 60.3 µg/mL (≈ 196 µM) | 12.2 µg/mL (≈ 39.7 µM) | 4.9 | EC50 (Enterovirus A71 [3]; [11]): 12.2 µg/mL (≈ 39.7 µM); selectivity ratio [6]: 5.4 |
| CCC[C@@H](CCn1cncn1)c1ccc(Cl)cc1 | 40.8 µg/mL (≈ 155 µM) | 36.6 µg/mL (≈ 139 µM) |  |  |  |
| c1ccc(C[C@@H](CCn2cncn2)c2ccccc2)cc1 | 56 µg/mL (≈ 202 µM) | 55.9 µg/mL (≈ 202 µM) |  |  |  |
| CCC[C@@H](CCn1cncn1)c1ccc(C)cc1 | 74.1 µg/mL (≈ 304 µM) | 71.3 µg/mL (≈ 293 µM) | 10.3 µg/mL (≈ 42.3 µM) | 6.9 | EC50 (Enterovirus A71 [3]; [11]): 10.9 µg/mL (≈ 44.8 µM); selectivity ratio [6]: 6.8 |
| CCCC[C@H](CCn1cncn1)c1ccc(Cl)cc1Cl | 10.1 µg/mL (≈ 32.3 µM) | 13.4 µg/mL (≈ 42.9 µM) |  |  |  |

| Compound | CC50 at 72 h [1] | CC50 at 72 h [2] | EC50 (Coxsackievirus B3 [4]; [10]) | selectivity ratio [5] | further results |
| --- | --- | --- | --- | --- | --- |
| CC[C@@H](CCn1cncn1)c1ccc(OC)cc1 | 115 µg/mL (≈ 469 µM) | 146 µg/mL (≈ 596 µM) | 10.1 µg/mL (≈ 41.2 µM) | 14.5 | inhibition at 16 µg/mL (Enterovirus A71 [7]; Enterovirus A, Xiangyang-Hubei-09, RD): 88.1%; inhibition (Enterovirus A71 [3]): Dose-dependent effect; EC50 (Enterovirus A71 [3]; [11]): 5.3 µg/mL (≈ 21.6 µM); inhibition (Coxsackievirus B3 [4]): Dose-dependent effect; inhibition (Coxsackievirus B3 [8]): Active; selectivity ratio [6]: 21.7; inhibition (Enterovirus A71 [9]): Active |
| CC[C@H](CCn1cncn1)c1ccc(OC)cc1 | 118 µg/mL (≈ 483 µM) | 153 µg/mL (≈ 625 µM) | 15.1 µg/mL (≈ 61.6 µM) | 10.2 | EC50 (Enterovirus A71 [3]; [11]): 15.9 µg/mL (≈ 64.8 µM); selectivity ratio [6]: 7.4 |
| Clc1ccc([C@@H](CCn2cncn2)Cc2ccccc2)c(Cl)c1 | 6.5 µg/mL (≈ 18.8 µM) | 11.1 µg/mL (≈ 32.1 µM) |  |  |  |
| Clc1ccc([C@@H](CCn2cncn2)Cc2ccccc2)cc1 | 24.4 µg/mL (≈ 78.3 µM) | 25.9 µg/mL (≈ 83.1 µM) |  |  |  |
| CCCC[C@H](CCn1cncn1)c1ccc(C)cc1 | 26.5 µg/mL (≈ 103 µM) | 23.7 µg/mL (≈ 92.1 µM) |  |  |  |
| C[C@@H](CCn1cncn1)Cc1ccccc1 | 114 µg/mL (≈ 530 µM) | 131 µg/mL (≈ 609 µM) | 10.3 µg/mL (≈ 47.8 µM) | 12.7 | inhibition (Enterovirus A71 [7]): Active; inhibition (Enterovirus A71 [3]): Dose-dependent effect; EC50 (Enterovirus A71 [3]; [11]): 9.1 µg/mL (≈ 42.3 µM); inhibition (Coxsackievirus B3 [4]): Dose-dependent effect; inhibition (Coxsackievirus B3 [8]): Active; selectivity ratio [6]: 12.6; inhibition (Enterovirus A71 [9]): Active |
| NC(=O)c1ncn([C@@H]2O[C@H](CO)[C@@H](O)[C@H]2O)n1 [RIBAVIRIN] | 486 µg/mL (≈ 1990 µM) | 572 µg/mL (≈ 2340 µM) | 42.9 µg/mL (≈ 176 µM) | 13.3 | inhibition (Enterovirus A71 [7]): Active; EC50 (Enterovirus A71 [3]; [11]): 32.5 µg/mL (≈ 133 µM); inhibition (Coxsackievirus B3 [8]): Active; selectivity ratio [6]: 15 |
| CCCC[C@@H](CCn1cncn1)c1ccc(OC)cc1 | 39.4 µg/mL (≈ 144 µM) | 31.6 µg/mL (≈ 116 µM) |  |  |  |
| Cc1ccc(C(CCn2cncn2)C2CCCCC2)cc1 (single isomer, unassigned) | 57.9 µg/mL (≈ 204 µM) | 57.3 µg/mL (≈ 202 µM) | 11.7 µg/mL (≈ 41.3 µM) | 4.9 | EC50 (Enterovirus A71 [3]; [11]): 10.6 µg/mL (≈ 37.4 µM); selectivity ratio [6]: 5.5 |
| CC[C@@H](CCn1cncn1)c1ccccc1 | 91.2 µg/mL (≈ 424 µM) | 89.9 µg/mL (≈ 418 µM) |  |  |  |
| Clc1ccc([C@H](CCn2cncn2)Cc2ccccc2)c(Cl)c1 | 1.9 µg/mL (≈ 5.49 µM) | 4.9 µg/mL (≈ 14.2 µM) |  |  |  |
| CCCC[C@H](CCn1cncn1)c1ccc(OC)cc1 | 28.3 µg/mL (≈ 104 µM) | 34.5 µg/mL (≈ 126 µM) |  |  |  |
| CCCC[C@@H](CCn1cncn1)c1ccccc1 | 47.5 µg/mL (≈ 195 µM) | 40.8 µg/mL (≈ 168 µM) |  |  | EC50 (Enterovirus A71 [3]; rd): Not Active; EC50 (Coxsackievirus B3 [4]): Not Active |
| Cc1ccc([C@H](CCn2cncn2)Cc2ccccc2)cc1 | 117 µg/mL (≈ 402 µM) | 152 µg/mL (≈ 522 µM) | 13.6 µg/mL (≈ 46.7 µM) | 11.2 | EC50 (Enterovirus A71 [3]; [11]): 9.2 µg/mL (≈ 31.6 µM); selectivity ratio [6]: 12.7 |
| CC[C@H](CCn1cncn1)c1ccccc1 | 99.8 µg/mL (≈ 464 µM) | 97.7 µg/mL (≈ 454 µM) |  |  |  |
| CCCC[C@@H](CCn1cncn1)c1ccc(Cl)cc1Cl | 1.9 µg/mL (≈ 6.08 µM) | 6.5 µg/mL (≈ 20.8 µM) |  |  |  |
| CCC[C@@H](CCn1cncn1)c1ccc(F)cc1 | 56.9 µg/mL (≈ 230 µM) | 55.3 µg/mL (≈ 224 µM) |  |  |  |
| CCC[C@H](CCn1cncn1)c1ccc(OC)cc1 | 59.3 µg/mL (≈ 229 µM) | 59.6 µg/mL (≈ 230 µM) |  |  |  |
| CC[C@@H](CCn1cncn1)c1ccc(F)cc1 | 91.6 µg/mL (≈ 393 µM) | 90.3 µg/mL (≈ 387 µM) |  |  | EC50 (Enterovirus A71 [3]; rd): Not Active; EC50 (Coxsackievirus B3 [4]): Not Active |
| CC[C@H](CCn1cncn1)c1ccc(C)cc1 | 85.2 µg/mL (≈ 372 µM) | 75.2 µg/mL (≈ 328 µM) | 12.1 µg/mL (≈ 52.8 µM) | 6.2 | EC50 (Enterovirus A71 [3]; [11]): 6.6 µg/mL (≈ 28.8 µM); selectivity ratio [6]: 12.9 |
| CC[C@H](CCn1cncn1)c1ccc(Cl)cc1 | 57 µg/mL (≈ 228 µM) | 50.6 µg/mL (≈ 203 µM) | 13.5 µg/mL (≈ 54.1 µM) | 3.7 | EC50 (Enterovirus A71 [3]; rd): Not Active |
